Values quoted from earlier work as cited in patent publication US8828415B2, “Microcapsules with acetylene carbamide-polyurea polymers and formulations thereof for controlled release” (priority 2006, dated 2014).

Columns and labels:
mice = settings: for 4 h
[1] = for cancer (Ames test): MSDS of Sigma-Aldrich and CYTEC

SMILES | affects respiratory system in humans at long term (3 y) (humans) | acute inhalation toxicity (LC50) (mice) | pulmonary sensitization in guinea pigs (guinea pigs) | cancer (Ames test) [1] | cancer: CMR category ([1]; MSDS) | cancer: IARC classification ([1]; MSDS)
Cc1ccc(N=C=O)cc1N=C=O [TDI, 2,4-toluenediisocyanate] | Yes | 10 ppm for 4 h - mice | Yes | carcinogenic (Ames test) | CMR Cat. Carcinogen 3 | IARC carrcinogen 2B
CC(C)(N=C=O)c1cccc(C(C)(C)N=C=O)c1 [TMXDI, alpha-, alpha-, alpha-, alpha-tetramethyl xylylene diisocyanate] | no | 27 ppm for 4 h - | no | not carcinogenic |  | 
